Assay results reported in patent US12473339B2, “Acylated glucagon analogues” (Zealand Pharma A/S, priority 2013, dated 2025).
*1 amine or outer side, *2 acyl side, *3 side chain or, on linkers, in order; H or OH if unused. Where a SMILES comes first, the peptide text is derived from it. Side-chain parts run from the residue outwards. [ ]: non-standard residue; d: D form. The star is where a group is joined. C18 diacid = O=C(O)CCCCCCCCCCCCCCCCC(=O)*; γGlu = O=C(O)[C@H](CCC(=O)[*:2])N[*:1]; Ac4c = NC1(C(=O)O)CCC1; AEEA = NCCOCCOCC(=O)O

Experiments:
[1] = Pharmacokinetic parameters after intravenous administration to rats; details: male, Han/Wistar, rat, in vivo, 20 nmol/kg
Description: Pharmacokinetic parameters of the test compounds were determined after intravenous administration to Han/Wistar rats. The acylated GLP-1 analogue semaglutide was also tested for comparison purposes. Male Wistar rats were obtained from Charles River (Germany) weighing approximately 180 to 210 g at time of arrival at the test facility. Rats were caged in European standard rat cages type IV with light cycle of 12-hour dark and 12-hour light. During the study rats were housed in standard rat cages type III. Both diet Altromin 1324 (Altromin, Germany) and water was administered ad libitum during the whole experimental period. The animals were housed in the test facility for at least 4 days in order to assure proper acclimatization. The compounds were first dissolved in 0.1% aqueous ammonia to a nominal concentration of 2 mg/ml, and then diluted to the desired dosing strength (10 μM) in sterile PBS containing 25 mM phosphate buffer, pH 7.4. Intravenous injections corresponding to 20 nmol/kg were given via a lateral tail vein. Blood samples (200 μl) were collected from the periorbital plexus at time points 0.08, 0.25, 0.5, 1, 2, 4, 8, 24, 32 and 48 h post dosing into K3EDTA tubes and centrifuged for 5 minutes at 4° C. within 20 minutes of sampling. […] Individual plasma concentration-time profiles were analysed by a non-compartmental approach using ToxKin™ version 3.2 (Unilog IT Services), and the resulting pharmacokinetic parameters were determined.

[2] = target: T1, human glucagon-like peptide 1 receptor (GLP-1R) (Homo sapiens, UniProt P43220); assay: GLP-1 receptor efficacy assay (cAMP AlphaScreen, CHO cells); assay type: cell-based; details: for Ratio GLP-1/Glucagon: EC50 [GLP-1R] / EC50 [Glucagon-R], human receptors in CHO-K1; for EC50: cAMP formation, CHO cells expressing human GLP-1-R, 15 min, read-out: EC50 hGLP-1R CHO-K1
T1 construct: expressed in transfected cells
Text: (§1) The cDNA encoding either the human glucagon receptor (Glucagon-R) (primary accession number P47871) or the human glucagon-like peptide 1 receptor (GLP-1R) (primary accession number P43220) were synthesized and cloned into a mammalian expression vector containing a Zeocin resistance marker.
(§2) The mammalian expression vectors encoding the Glucagon-R or the GLP-1-R were transfected into Chinese hamster ovary (CHO) cells by the Attractene method. Stably expressing clones were obtained by Zeocin selection (250 μg/mL) upon limited dilution of cells resistant to the selection pressure. Glucagon-R and GLP-1-R cell clones expressing were picked, propagated and tested in the Glucagon-R and GLP-1-R efficacy assays as described below. One Glucagon-R expressing clone and one GLP-1-R expressing clone were chosen for compound profiling.
(§3) CHO cells expressing the human Glucagon-R, or human GLP-1-R were seeded 24 hours prior to the assay at 30,000 cells per well in 96-well microtiter plates in culture in 100 μl growth medium. On the day of analysis, growth medium was removed and the cells were washed once with 200 μl of assay buffer (Krebs-Ringer-buffer—KRBH). The buffer was removed and the cells were incubated for 15 min at room temperature in 10 μl KRBH (KRBH+10 mM HEPES, 5 mM NaHCO3, 0.1% (V/V) BSA) with 0.1 mM IBMX in deionized water containing increasing concentrations of test peptides. The reaction was stopped by the addition of lysis buffer (0.1% w/v BSA, 5 mM HEPES, 0.3% v/v Tween-20). After cell lysis for 10 min at room temperature, lysates were transferred to 384-well plates and 10 μl of acceptor/donorbead mixture as contained in the AlphaScreen™ cAMP Functional Assay Kit was added. After one hour of incubation at room temperature in the dark, the cAMP content was determined applying the AlphaScreen™ cAMP Functional Assay Kit from Perkin-Elmer according to manufacturer instructions. EC50 and relative efficacies compared to reference compounds (glucagon and GLP-1) were calculated applying computer aided curve fitting. The GLP-1/glucagon ratio is calculated as defined earlier.

[3] = target: T2, human glucagon receptor (Glucagon-R) (Homo sapiens, UniProt P47871); assay: Glucagon receptor efficacy assay (cAMP AlphaScreen, CHO cells); assay type: cell-based; details: cAMP formation, CHO cells expressing human Glucagon-R, 15 min; read-out: EC50 hGCGR CHO-K1
T2 construct: expressed in transfected cells
Text: as §1, §2, §3

T1 sequence (P43220 24-463): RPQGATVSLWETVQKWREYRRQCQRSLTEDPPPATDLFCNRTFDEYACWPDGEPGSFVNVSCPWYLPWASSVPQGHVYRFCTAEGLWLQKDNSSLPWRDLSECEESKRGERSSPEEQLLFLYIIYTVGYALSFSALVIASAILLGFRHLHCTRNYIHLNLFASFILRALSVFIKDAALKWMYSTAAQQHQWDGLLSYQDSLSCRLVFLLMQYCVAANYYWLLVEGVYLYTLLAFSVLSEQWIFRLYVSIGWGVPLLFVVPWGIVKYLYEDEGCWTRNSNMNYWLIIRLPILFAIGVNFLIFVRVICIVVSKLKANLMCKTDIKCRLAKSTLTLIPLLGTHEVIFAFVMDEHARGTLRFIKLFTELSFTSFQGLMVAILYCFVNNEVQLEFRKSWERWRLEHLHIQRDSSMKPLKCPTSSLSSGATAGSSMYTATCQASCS
T2 sequence (P47871 26-477): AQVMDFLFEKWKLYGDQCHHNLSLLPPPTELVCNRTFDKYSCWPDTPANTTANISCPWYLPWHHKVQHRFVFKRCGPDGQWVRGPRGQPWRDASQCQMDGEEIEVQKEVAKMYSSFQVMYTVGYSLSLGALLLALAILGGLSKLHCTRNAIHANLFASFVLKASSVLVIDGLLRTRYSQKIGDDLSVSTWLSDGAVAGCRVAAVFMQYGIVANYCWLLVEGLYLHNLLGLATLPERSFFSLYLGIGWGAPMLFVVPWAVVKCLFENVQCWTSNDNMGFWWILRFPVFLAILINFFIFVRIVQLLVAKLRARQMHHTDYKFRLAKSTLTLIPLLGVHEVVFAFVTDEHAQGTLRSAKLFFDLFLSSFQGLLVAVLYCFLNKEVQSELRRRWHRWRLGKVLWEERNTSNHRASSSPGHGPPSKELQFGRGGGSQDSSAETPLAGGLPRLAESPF

Row | MRT [1] | clearance [1] | half-life [1] | Ratio GLP-1/Glucagon [2] | EC50 [2] | EC50 [3] | SMILES
1 | 28.7 h | 3.36 mL/h/kg | 1400 min | 0.47 | 0.7 nM | – | CC[C@H](C)[C@H](NC(=O)[C@H](Cc1ccccc1)NC(=O)[C@H](CC(=O)O)NC(=O)[C@H](CCCCN)NC(=O)[C@H](C)NC(=O)[C@H](C)NC(=O)[C@H](CCCNC(=N)N)NC(=O)[C@H](CCC(=O)O)NC(=O)[C@H](CC(=O)O)NC(=O)[C@H](CC(C)C)NC(=O)[C@H](Cc1ccc(O)cc1)NC(=O)[C@H](CCCCN)NC(=O)[C@H](CO)NC(=O)[C@H](Cc1ccc(O)cc1)NC(=O)[C@H](CC(=O)O)NC(=O)[C@H](CO)NC(=O)[C@@H](NC(=O)[C@H](Cc1ccccc1)NC(=O)[C@@H](NC(=O)CNC(=O)[C@H](CCC(N)=O)NC(=O)C(C)(C)NC(=O)[C@@H](N)Cc1c[nH]cn1)[C@@H](C)O)[C@@H](C)O)C(=O)N[C@@H](CCCCNC(=O)CNC(=O)CNC(=O)[C@H](CO)NC(=O)CNC(=O)[C@H](CO)NC(=O)CNC(=O)CC[C@H](NC(=O)CCCCCCCCCCCCCCCCC(=O)O)C(=O)O)C(=O)N[C@@H](Cc1c[nH]c2ccccc12)C(=O)N[C@@H](CC(C)C)C(=O)N[C@@H](CCC(=O)O)C(=O)N[C@@H](CO)C(=O)N[C@@H](C)C(N)=O [Compound 3]
2 | 17.6 h | 6.6 mL/h/kg | 822 min | 1.56 | 0.7 nM | – | CC[C@H](C)[C@H](NC(=O)[C@H](Cc1ccccc1)NC(=O)[C@H](CC(=O)O)NC(=O)[C@H](CCCCN)NC(=O)[C@H](C)NC(=O)[C@H](CCCNC(=N)N)NC(=O)[C@H](CCCCNC(=O)COCCOCCNC(=O)COCCOCCNC(=O)CC[C@H](NC(=O)CCCCCCCCCCCCCCCCC(=O)O)C(=O)O)NC(=O)[C@H](CCC(=O)O)NC(=O)[C@H](CC(=O)O)NC(=O)[C@H](CC(C)C)NC(=O)[C@H](Cc1ccc(O)cc1)NC(=O)[C@H](CCCCN)NC(=O)[C@H](CO)NC(=O)[C@H](Cc1ccc(O)cc1)NC(=O)[C@H](CC(=O)O)NC(=O)[C@H](CO)NC(=O)[C@@H](NC(=O)[C@H](Cc1ccccc1)NC(=O)[C@@H](NC(=O)CNC(=O)[C@H](CCC(N)=O)NC(=O)C1(NC(=O)[C@@H](N)Cc2c[nH]cn2)CCC1)[C@@H](C)O)[C@@H](C)O)C(=O)N[C@@H](CCC(=O)O)C(=O)N[C@@H](Cc1c[nH]c2ccccc12)C(=O)N[C@@H](CC(C)C)C(=O)N[C@@H](CCC(=O)O)C(=O)N[C@@H](CO)C(=O)N[C@@H](C)C(N)=O [Compound 4, H-H-Ac4c-QGTFTSDYSKYLDE-K([17-carboxy-heptadecanoyl]-isoGlu-Peg3-Peg3)-RAKDFIEWLESA-NH2] (H-H[Ac4c]QGTFTSDYSKYLDEK([AEEA-AEEA-γGlu-C18 diacid])RAKDFIEWLESA-NH2)
3 | – | – | – | 4.61 | – | 0.18 nM | CC[C@H](C)[C@H](NC(=O)[C@H](Cc1ccccc1)NC(=O)[C@H](CC(=O)O)NC(=O)[C@H](CCCCN)NC(=O)[C@H](C)NC(=O)[C@H](C)NC(=O)[C@H](CCCNC(=N)N)NC(=O)[C@H](CCCCNC(=O)CNC(=O)CNC(=O)[C@H](CO)NC(=O)CNC(=O)[C@H](CO)NC(=O)CNC(=O)CC[C@H](NC(=O)CCCCCCCCCCCCCCCCC(=O)O)C(=O)O)NC(=O)[C@H](CC(=O)O)NC(=O)[C@H](CC(C)C)NC(=O)[C@H](Cc1ccc(O)cc1)NC(=O)[C@H](CCCCN)NC(=O)[C@H](CO)NC(=O)[C@H](Cc1ccc(O)cc1)NC(=O)[C@H](CC(=O)O)NC(=O)[C@H](CO)NC(=O)[C@@H](NC(=O)[C@H](Cc1ccccc1)NC(=O)[C@@H](NC(=O)CNC(=O)[C@H](CCC(N)=O)NC(=O)C(C)(C)NC(=O)[C@@H](N)Cc1c[nH]cn1)[C@@H](C)O)[C@@H](C)O)C(=O)N[C@@H](CCC(=O)O)C(=O)N[C@@H](Cc1c[nH]c2ccccc12)C(=O)N[C@@H](CC(C)C)C(=O)N[C@@H](CCC(=O)O)C(=O)N[C@@H](CO)C(=O)N[C@@H](C)C(N)=O [Compound 5, H-H-Aib-QGTFTSDYSKYLD-K([17-carboxy-heptadecanoyl]-isoGlu-GSGSGG)-RAAKDFIEWLESA-NH2]
4 | – | – | – | 6.86 | – | 0.07 nM | CC[C@H](C)[C@H](NC(=O)[C@H](Cc1ccccc1)NC(=O)[C@H](CC(=O)O)NC(=O)[C@H](CCCCN)NC(=O)[C@H](C)NC(=O)[C@H](CCCNC(=N)N)NC(=O)[C@H](CCCCNC(=O)CC[C@H](NC(=O)CCCCCCCCCCCCCCCCC(=O)O)C(=O)O)NC(=O)[C@H](CCC(=O)O)NC(=O)[C@H](CC(=O)O)NC(=O)[C@H](CC(C)C)NC(=O)[C@H](Cc1ccc(O)cc1)NC(=O)[C@H](CCCCN)NC(=O)[C@H](CO)NC(=O)[C@H](Cc1ccc(O)cc1)NC(=O)[C@H](CC(=O)O)NC(=O)[C@H](CO)NC(=O)[C@@H](NC(=O)[C@H](Cc1ccccc1)NC(=O)[C@@H](NC(=O)CNC(=O)[C@H](CCC(N)=O)NC(=O)C1(NC(=O)[C@@H](N)Cc2c[nH]cn2)CCC1)[C@@H](C)O)[C@@H](C)O)C(=O)N[C@@H](CCC(=O)O)C(=O)N[C@@H](Cc1c[nH]c2ccccc12)C(=O)N[C@@H](CC(C)C)C(=O)N[C@@H](CCC(=O)O)C(=O)N[C@@H](CO)C(=O)N[C@@H](C)C(N)=O [Compound 12, H-H-Ac4c-QGTFTSDYSKYLDE-K([17-carboxy-heptadecanoyl]-isoGlu)-RAKDFIEWLESA-NH2] (H-H[Ac4c]QGTFTSDYSKYLDEK([γGlu-C18 diacid])RAKDFIEWLESA-NH2)
